We go through 1 compound from patent US10092491B2, “Skin renewal enhancer” (priority 2015, dated 2018).

This data set in a line: Solubilization in anhydrous polar solvents. Type of data set: physicochemical. The note with it: 25° C. The method, then: It was unexpectedly discovered that both hydroxy acids and urea can be fully solubilized in anhydrous solvent at concentrations suitable for use as a chemical peel. Illustratively, for a peeling activity in the provided compositions and systems the hydroxy acid and urea must be present at a concentration of 8-10% or greater, with much greater efficacy at 10% or greater. It was discovered that anhydrous polar solvents can fully solubilize (i.e. no observable haze at 25° C.) both hydroxy acids and urea up to concentrations of 25%, thereby allowing significant efficacy when applied to the skin. The use of anhydrous glycerin (as one example) alone or optionally with or substituted by other anhydrous polar solvents (e.g. anhydrous polar solvents such as propylene glycol, butylene glycol, dimethylisosorbide, etc.) allows for the elimination of water and the prevention of the “burn” experienced in prior systems.

Bounds are passed on as bounds.

On to `NC(N)=O` [urea], for which the “concentration fully solubilized (no observable haze)” value is recorded as at most 25%.
